Experimental data taken from US7381714B2, “A1 adenosine receptor agonists” (CV Therapeutics, Inc., priority 2005, dated 2008).

Key:
A1 adenosine receptor = biological target: T1, A1 adenosine receptor (Mesocricetus auratus, UniProt A0A1U8BVR4); assay: Competitive radioligand binding assay, DDT cell membranes; design: species or system hamster; conditions: membranes of DDT cells; tritiated radioligand 1.5 nM; 23° C. 90 minutes; read-out: A1 BINDING AFFINITY Ki
T1 sequence (A0A1U8BVR4 1-326): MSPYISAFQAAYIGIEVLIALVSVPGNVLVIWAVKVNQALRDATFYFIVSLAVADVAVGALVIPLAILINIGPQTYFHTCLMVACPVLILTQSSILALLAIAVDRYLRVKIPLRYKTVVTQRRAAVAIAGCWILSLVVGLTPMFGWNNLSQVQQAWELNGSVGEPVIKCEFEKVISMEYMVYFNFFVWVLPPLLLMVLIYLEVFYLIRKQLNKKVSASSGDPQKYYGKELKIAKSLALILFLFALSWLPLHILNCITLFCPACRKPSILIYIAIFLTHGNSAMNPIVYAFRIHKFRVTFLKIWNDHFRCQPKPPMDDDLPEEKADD
Protocol: DDT cells (hamster vas deferens smooth muscle cell line) were grown as monolayers in petri dishes using Dulbecco's Modified Eagle's Medium (DMEM) containing 2.5 μg mL^−1 amphotericin B, 100 U mL^−1 penicillin G, 0.1 mg mL^−1 streptomycin sulfate and 5% fetal bovine serum in a humidified atmosphere of 95% air and 5% CO2. Cells were subcultured twice weekly by dispersion in Hank's Balanced Salt Solution (HBSS) without the divalent cations and containing 1 mM EDTA. The cells were then seeded in growth medium at a density of 1.2×10^5 cells per plate and experiments were performed 4 days later at approximately one day preconfluence.
Attached cells were washed twice with HBSS (2×10 mL), scraped free of the plate with the aid of a rubber policeman in 5 mL of 50 mM Tris-HCl buffer pH 7.4 at 4° C. and the suspension was homogenized for 10 s. The suspension was then centrifuged at 27,000×g for 10 min. The pellet was resuspended in homogenization buffer by vortexing and centrifuged again as described above. The final pellet was resuspended in 1 vol of 50 mM Tris-HCl buffer pH 7.4 containing 5 mM MgCl2 for A1 adenosine receptor assays. For the [^35S]GTPγS binding assay the final pellet was resuspended in 50 mM Tris-HCl pH 7.4 containing 5 mM MgCl2, 100 mM NaCl and 1 mM dithiothreitol. This membrane suspension was then placed in liquid nitrogen for 10 min and stored at −80° C. Aliquots of the membrane suspension were later thawed and used for assays. The protein content was determined with a BradfordTm Assay Kit using bovine serum albumin as standard.
Compounds of Formula I were assayed by use of competitive radioligand binding methods to determine their affinity for the A1 adenosine receptor sites on the membranes of DDT cells. […] The amount of radioactivity retained on the filters was determined by liquid scintillation spectrometry. […]

[1] = cited from earlier work

Structure (SMILES)	Ki (A1 adenosine receptor) [nM]	half-life [1]
CCOC(=O)c1cn(-c2nc(NC3CCCC3)c3ncn([C@@H]4O[C@H](CO)[C@@H](O)[C@H]4O)c3n2)nn1 [II., ethyl 1-{9-[(4S,3R,5R)-3,4-dihydroxy-5-(hydroxymethyl)oxolan-2-yl]-6-(cyclopentylamino)purin-2-yl}-1,2,3-triazole-4-carboxylate]	3	–
CNC(=O)c1cn(-c2nc(NC3CCCC3)c3ncn([C@@H]4O[C@H](CO)[C@@H](O)[C@H]4O)c3n2)nn1 [III., (1-{9-[(4S,3R,5R)-3,4-dihydroxy-5-(hydroxymethyl)oxolan-2-yl]-6-(cyclopentylamino)purin-2-yl}(1,2,3-triazol-4-yl))-N-methylcarboxamide]	2	–
NC(=O)c1cn(-c2nc(NC3CCCC3)c3ncn([C@@H]4O[C@H](CO)[C@@H](O)[C@H]4O)c3n2)nn1 [IV., 1-{9-[(4S,3R,5R)-3,4-dihydroxy-5-(hydroxymethyl)oxolan-2-yl]-6-(cyclopentylamino)purin-2-yl}-1,2,3-triazole-4-carboxamide]	16	–
Nc1ncnc2c1ncn2[C@@H]1O[C@H](CO)[C@@H](O)[C@H]1O [adenosine]	–	less than 10 sec
